# Like-named read-outs stand apart in the source and are kept apart here.
# Tested on: SSTR2 mutants
# Test: SSTRs Gi-mediated cAMP inhibition, GloSensor, HEK293, 5 μM forskolin, 15 min room temperature (SSTR2 mutants)
# Assay type: cell-based, human
# Design: Best-fit Bottom, cAMP inhibition / Best-fit Top, cAMP inhibition / Span, cAMP inhibition / Bottom (best-fit value) / Top (best-fit value) / Span (best-fit value) / Span (best-fit) / Bottom (best-fit) / Top (best-fit) / Best-fit Bottom / Best-fit Top / Best-fit Span / Top / Span: scale not given here
# Protocol: The levels of the intracellular 3′, 5′-cyclic AMP (cAMP) were measured by the GloSensor cAMP assay (Promega) as described in the previous studies[28],[41] which has been widely used. The human full-length SSTRs and mutants were cloned into the pcDNA3.1+ vector with a HA signal sequence followed by a Flag tag at the N-terminus. HEK293 cells (ATCC, CRL-1573) were seeded into 6-well microplates at a density of 1.0 × 10^6 cells/well and cultured for 24 h at 37 °C with 5% CO2. Cells were then co-transfected with SSTR wild-type or mutants and GloSensor plasmids. After 24 h of transfection, the cells were dissociated with TrypLE™ Express Enzyme (1X) (Thermo Fisher Scientific) and collected by centrifugation at 500 × g for 5 min. Then the collected cells were suspended in Hank’s balanced salt solution [HBSS (Thermo Fisher Scientific)] supplemented with […] (YEASEN), and then the suspension cells were seeded into 96-well plates with 90 μl/well. After incubating at room temperature for 40 min, 5 μM forskolin and ligands diluted in HBSS were added to each well and the plates were incubated at room temperature for 15 min. […] were measured using the Synergy H1 microplate reader (BioTek) and the data presented are means of at least three independent experiments.
compound,measurement,setting,value
C[C@@H](O)[C@@H]1NC(=O)[C@H](CCCCN)NC(=O)[C@@H](Cc2c[nH]c3ccccc23)NC(=O)[C@H](Cc2ccccc2)NC(=O)[C@@H](NC(=O)[C@H](N)Cc2ccccc2)CSSC[C@@H](C(=O)N[C@H](CO)[C@@H](C)O)NC1=O [octreotide],Best-fit Bottom,D295A-1,-10.23
same,Best-fit Span,D295A-1,99.42
same,Best-fit Top,D295A-1,89.19
same,LogEC50,D295A-1,-8.381
same,EC50,"D295A-1, read-out: EC50",4.16 nM
same,Best-fit Bottom,D295A-2,1.886
same,Best-fit Span,D295A-2,96.17
same,Best-fit Top,D295A-2,98.06
same,LogEC50,D295A-2,-8.514
same,EC50,"D295A-2, read-out: EC50",3.06 nM
same,Best-fit Span,D295A-3,116.5
same,Best-fit Top,D295A-3,121.2
same,LogEC50,D295A-3,-8.224
same,EC50,"D295A-3, read-out: EC50",5.97 nM
same,Span (best-fit),F208A-1,78.86
same,Span (best-fit),F208A-2,58.27
same,Bottom (best-fit),F265A-1,0.9849
same,LogEC50 (best-fit),F265A-1,-7.854
same,Span (best-fit),F265A-1,101.1
same,Top (best-fit),F265A-1,102.1
same,EC50,"F265A-1, read-out: EC50 (best-fit)",14 nM
same,Bottom (best-fit),F265A-2,21.57
same,LogEC50 (best-fit),F265A-2,-8.682
same,Span (best-fit),F265A-2,69.47
same,Top (best-fit),F265A-2,91.04
same,EC50,"F265A-2, read-out: EC50 (best-fit)",2.08 nM
same,Bottom (best-fit),F265A-3,0.9849
same,LogEC50 (best-fit),F265A-3,-7.854
same,Span (best-fit),F265A-3,101.1
same,Top (best-fit),F265A-3,102.1
same,Bottom (best-fit),F272A-1,2.117
same,LogEC50 (best-fit),F272A-1,-8.522
same,Span (best-fit),F272A-1,53.6
same,Top (best-fit),F272A-1,55.72
same,EC50,"F272A-1, read-out: EC50 (best-fit)",3 nM
same,Bottom (best-fit),F272A-2,11.48
same,LogEC50 (best-fit),F272A-2,-6.317
same,Span (best-fit),F272A-2,89.48
same,Top (best-fit),F272A-2,101
same,EC50,"F272A-2, read-out: EC50 (best-fit)",482 nM
same,Bottom (best-fit),F272A-3,14.59
same,LogEC50 (best-fit),F272A-3,-6.317
same,Span (best-fit),F272A-3,113.7
same,Top (best-fit),F272A-3,128.3
same,Best-fit Bottom,F294A-1,3.53
same,Best-fit Span,F294A-1,87.88
same,Best-fit Top,F294A-1,91.41
same,LogEC50,F294A-1,-6.677
same,EC50,"F294A-1, read-out: EC50",211 nM
same,Best-fit Bottom,F294A-2,6.308
same,Best-fit Span,F294A-2,82.91
same,Best-fit Top,F294A-2,89.22
same,LogEC50,F294A-2,-6.828
same,EC50,"F294A-2, read-out: EC50",149 nM
same,Best-fit Bottom,F294A-3,4.16
same,Best-fit Span,F294A-3,103.6
same,Best-fit Top,F294A-3,107.7
same,LogEC50,F294A-3,-6.677
same,Emax,"Gi signaling, I130A, earlier manuscript version quoted by reviewer, superseded",91%
same,Emax,"Gi signaling, Q102A, earlier manuscript version quoted by reviewer, superseded",109%
same,Emax,"Gi signaling, SSTR2 D122(3.32)A, detected at 10 μM, n=3",12.04±1.83 %WT
same,Emax,"Gi signaling, SSTR2 D295(7.36)A, n=3",102.80±9.54 %WT
same,EC50,"Gi signaling, SSTR2 D295(7.36)A, n=3, read-out: EC50",4.4 ± 8.48 nM
same,Emax,"Gi signaling, SSTR2 F127(3.37)A, n=3",108.70±0.91 %WT
same,EC50,"Gi signaling, SSTR2 F127(3.37)A, n=3, read-out: EC50",1.93 nM
same,Emax,"Gi signaling, SSTR2 F208(5.38)A, n=3",96.46±2.20 %WT
same,EC50,"Gi signaling, SSTR2 F208(5.38)A, n=3, read-out: EC50",6.42 ± 2.37 nM
same,Emax,"Gi signaling, SSTR2 F265(6.44)A, n=3",99.81±4.55 %WT
same,EC50,"Gi signaling, SSTR2 F265(6.44)A, n=3, read-out: EC50",12.3 ± 5.46 nM
same,Emax,"Gi signaling, SSTR2 F272A, n=3",95.01±21.17 %WT
same,EC50,"Gi signaling, SSTR2 F272A, n=3, read-out: EC50",322.3 ± 1.6 nM
same,Emax,"Gi signaling, SSTR2 F294(7.35)A, n=3",96.11±5.83 %WT
same,EC50,"Gi signaling, SSTR2 F294(7.35)A, n=3, read-out: EC50",190 ± 2.07 nM
same,Emax,"Gi signaling, SSTR2 I130(3.40)A, n=3",101.10±5.08 %WT
same,EC50,"Gi signaling, SSTR2 I130(3.40)A, n=3, read-out: EC50",11.6 ± 4.99 nM
same,Emax,"Gi signaling, SSTR2 I195(45.52)A, n=3",100.40±3.58 %WT
same,EC50,"Gi signaling, SSTR2 I195(45.52)A, n=3, read-out: EC50",6.58 ± 1.1 nM
same,Emax,"Gi signaling, SSTR2 I284ECL3A, n=3",97.53±14.28 %WT
same,EC50,"Gi signaling, SSTR2 I284ECL3A, n=3, read-out: EC50",1.91 ± 4.66 nM
same,Emax,"Gi signaling, SSTR2 K291(7.32)A, n=3",89.41±10.26 %WT
same,EC50,"Gi signaling, SSTR2 K291(7.32)A, n=3, read-out: EC50",5.46 ± 1.06 nM
same,Emax,"Gi signaling, SSTR2 L99(2.60)A, n=3",92.36±6.12 %WT
same,EC50,"Gi signaling, SSTR2 L99(2.60)A, n=3, read-out: EC50",1.25 nM
same,Emax,"Gi signaling, SSTR2 L290(7.31)A, n=3",103.50±7.16 %WT
same,Emax,"Gi signaling, SSTR2 N276(6.55)A, n=3",107.20±5.70 %WT
same,EC50,"Gi signaling, SSTR2 N276(6.55)A, n=3, read-out: EC50",35.1 ± 8.45 nM
same,Emax,"Gi signaling, SSTR2 P220(5.50)A, n=3",95.86±14.17 %WT
same,EC50,"Gi signaling, SSTR2 P220(5.50)A, n=3, read-out: EC50",3.37 ± 1.32 nM
same,Emax,"Gi signaling, SSTR2 P286ECL3A, n=3",102.40±5.34 %WT
same,EC50,"Gi signaling, SSTR2 P286ECL3A, n=3, read-out: EC50",0.62 ± 1.18 nM
same,Emax,"Gi signaling, SSTR2 Q102(2.63)A, n=3",71.48±1.31 %WT
same,EC50,"Gi signaling, SSTR2 Q102(2.63)A, n=3, read-out: EC50",66.8 ± 2.72 nM
same,Emax,"Gi signaling, SSTR2 Q126(3.36)A, detected at 10 μM, n=3",21.88±1.91 %WT
same,Emax,"Gi signaling, SSTR2 S279(6.58)A, n=3",101.70±5.61 %WT
same,EC50,"Gi signaling, SSTR2 S279(6.58)A, n=3, read-out: EC50",1.17 ± 1.01 nM
same,Emax,"Gi signaling, SSTR2 S285ECL3A, n=3",87.52±6.00 %WT
same,EC50,"Gi signaling, SSTR2 S285ECL3A, n=3, read-out: EC50",0.69 ± 1.18 nM
same,Emax,"Gi signaling, SSTR2 T194(45.51)A, n=3",91.51±3.38 %WT
same,EC50,"Gi signaling, SSTR2 T194(45.51)A, n=3, read-out: EC50",48.5 ± 2.29 nM
same,Emax,"Gi signaling, SSTR2 T287ECL3A, n=3",98.50±5.26 %WT
same,EC50,"Gi signaling, SSTR2 T287ECL3A, n=3, read-out: EC50",0.6 nM
same,Emax,"Gi signaling, SSTR2 V103(2.64)A, n=3",90.80±3.48 %WT
same,EC50,"Gi signaling, SSTR2 V103(2.64)A, n=3, read-out: EC50",7.66 ± 2.51 nM
same,Emax,"Gi signaling, SSTR2 W188ECL3A, n=3",102.40±5.12 %WT
same,EC50,"Gi signaling, SSTR2 W188ECL3A, n=3, read-out: EC50",0.32 nM
same,Emax,"Gi signaling, SSTR2 W269(6.48)A, n=3",99.58±2.56 %WT
same,EC50,"Gi signaling, SSTR2 W269(6.48)A, n=3, read-out: EC50",0.89 ± 2.24 nM
same,Emax,"Gi signaling, SSTR2 Y50(1.39)A, n=3",104.70±0.48 %WT
same,EC50,"Gi signaling, SSTR2 Y50(1.39)A, n=3, read-out: EC50",0.46 nM
same,Emax,"Gi signaling, SSTR2 Y205(5.35)A, n=3",112.90±25.77 %WT
same,EC50,"Gi signaling, SSTR2 Y205(5.35)A, n=3, read-out: EC50",0.92 nM
same,Emax,"Gi signaling, SSTR2 Y302(7.43)A, n=3",79.09±10.74 %WT
same,EC50,"Gi signaling, SSTR2 Y302(7.43)A, n=3, read-out: EC50",79 ± 2.7 nM
same,Bottom (best-fit value),"I284A-1, run 1",8.872
same,LogEC50 (best-fit value),"I284A-1, run 1",-8.868
same,Span (best-fit value),"I284A-1, run 1",107.4

# From PMC9944328 (Nature Communications, 2023)
